Columns and labels:
[1] = system: Pasteurella multocida (bovine); experiment: Standard agar-dilution assay, MIC (Table VI); format: cell-based
Excerpt: (§1) Antibiotic A-32887 inhibits the growth of pathogenic bacteria, especially gram-positive bacteria. Table VI summarizes the minimal inhibitory concentrations (MIC), as measured by standard agar-dilution assays, at which A-32887 (Na-K salt) inhibits certain bacteria.

[2] = system: Staphylococcus aureus 3055; experiment: Standard agar-dilution assay, MIC (Table VI); format: cell-based
Excerpt: as §1

Staphylococcus sp. = experiment: Standard agar-dilution assay, MIC (Table VI); format: cell-based
Excerpt: as §1

Streptococcus faecalis = experiment: Standard agar-dilution assay, MIC (Table VI); format: cell-based
Excerpt: as §1

Streptococcus sp. = experiment: Standard agar-dilution assay, MIC (Table VI); format: cell-based
Excerpt: as §1

Mycoplasma gallisepticum = experiment: In vitro broth-dilution studies, mycoplasma (Table X); format: cell-based
Excerpt: (§2) Activity against mycoplasma is another useful aspect of the antimicrobial activity of the A-32887 compounds. Mycoplasma species, also known as pleuropneumonia-like (PPLO) organisms, are pathogenic to man and various animals. Anti-mycoplasma agents are especially needed by the poultry industry. The MIC's of A-32887 (Na-K salt) against typical mycoplasma species, as determined by in vitro broth-dilution studies, are summarized in Table X: […]

Mycoplasma hyopneumoniae = experiment: as above; format: cell-based
Excerpt: as §2

Mycoplasma hyorhinis = experiment: as above; format: cell-based
Excerpt: as §2

Mycoplasma synoviae = experiment: as above; format: cell-based
Excerpt: as §2

[3] = Acute toxicity, intraperitoneal, mice; format: in vivo; settings: intraperitoneally
E. tenella and E. maxima = experiment: Anticoccidial activity in chicks (Table XI); format: in vivo; parameters: Average Lesion Score, Total Intestinal / Average Lesion Score, Cecal: scale not given here; settings: for Mortality: due to coccidiosis; for Feed/Gain: pens without deaths only; for Average Weight Gain: per survivor
Experimental: ^1 70,000 oocysts/bird of each of E. tenella and E. maxima
^2 Infected 48 hours postmedication; terminated seven days
^3 Four replicates; five birds/replicate
^6 Pens without deaths only

[4] = system: E. tenella and E. acervulina; experiment: Anticoccidial activity in chicks (Table XII); format: in vivo; parameters: Average Lesion Score, Intestinal / Average Lesion Score, Cecal: scale not given here; settings: for Oocysts Per Bird: days 7-9; for Percent Mortality: due to coccidiosis; for Percent Weight Gain: normal controls = 100%
Experimental: ^1 6 replicates; 5 birds each
^2 Infection inoculum 48 hours post-medication onset
^4 Normal controls = 100%

rumen flora = experiment: Volatile-fatty-acid (VFA) production in treated vs control flasks (Table XIV)
[5] = Ruminal VFA in fistulated feed-lot cattle (Table XV); format: in vivo; settings: 30 g/ton, 24-day treatment
Excerpt: The procedure used in testing cattle in this manner is also described in Raun's U.S. Pat. No. 3,839,557 (see Example 9). Table XV summarizes the results of such a test with A-32887 (Na-K salt) wherein five feed-lot cattle weighing approximately 425 kg. were in each group and the mean percent increases in ruminal propionate concentration were averaged over four analyses in a 24-day treatment period.

[6] = Ruminal propionate in sheep (Table XVI); format: in vivo; settings: 15 g/ton, 19-day treatment, control 26.5
Excerpt: Table XVI summarizes the results of a similar test in sheep with A-32887 (Na-K salt) wherein four sheep were in each group and the mean percent increases in ruminal propionate concentration were averaged over four analyses in a 19-day treatment period.

acute swine dysentery = experiment: Swine dysentery test in pigs (Table XVII); format: in vivo
Experimental: In another aspect the A-32887 compounds are useful in the prevention and control of swine dysentery. A preferred method of administration to swine is by incorporation of an appropriate amount of an A-32887 compound into the feed ration. […] In this test, groups of four pigs were challenged orally with 5.0 ml of a colon-content/tissue suspension prepared from pigs suffering from acute swine dysentery. Treated pigs were challenged 24 hours after initiating feed treatment. The test was carried out over a period of 26 days, observing pigs daily, and weighing them weekly and on day 26.
*Fecal material for each group was rated daily with 0=normal, 1=slight
blood or mucus, 2=moderate blood or mucus, 3=marked blood or mucus. Index
is the total score per treatment for 25 days.

powdery mildew = experiment: Powdery mildew disease in bean plants, spray; format: in vivo; settings: 400 ppm spray
Excerpt: The A-32887 compounds are also useful in the treatment of certain plant diseases.

guinea pig left atria = experiment: Cardiac contractility of guinea pig left atria; settings: 10^-5 molar; percentage of maximal force elicited by a challenge dose of norepinephrine
Excerpt: The A-32887 compounds are potential cardiotonic agents. In tests using guinea pig left atria, A-32887 (Na-K salt) increased cardiac contractility. Response to this test is expressed as a percentage of the maximal force that could be elicited by a challenge dose of norepinephrine. A-32887 (Na-K salt), at a 10^-5 molar concentration, increased cardiac contractility by 28.0 ± 7.1 percent.

`CO[C@H]1CC[C@H](OC2[C@@H](C)[C@@](C)(O)O[C@H]([C@H]3CC[C@H]([C@@H]4CC[C@H]([C@@]5(C)O[C@]6(O[C@H](C[C@@H]7O[C@](O)([C@@H](O)C(=O)O)[C@@H](C)[C@H](OC)[C@@]7(C)OC)C[C@@H](OC)[C@H]6C)[C@H](C)[C@H]5OC)O4)O3)[C@H]2C)O[C@@H]1C.[K+].[Na+]` (stereo partly drawn) [A-32887 (Na-K salt)] showed an MIC [1] of 50.00 µg/mL, an MIC [2] of 6.25 µg/mL and an MIC (Staphylococcus sp.) of 1.56 µg/mL. For the same compound, the MIC (Streptococcus faecalis) was 6.25 µg/mL, the MIC (Streptococcus sp.) was 3.12 µg/mL and the MIC (Mycoplasma gallisepticum) was 12.5 µg/mL. For the same compound, the MIC (Mycoplasma hyopneumoniae) was 6.25 µg/mL, the MIC (Mycoplasma hyorhinis) was 25.0 µg/mL and the MIC (Mycoplasma synoviae) was 3.12 µg/mL. For the same compound, the LD50 [3] was 37.5 mg/kg × 1, the “Average Lesion Score, Cecal” value (E. tenella and E. maxima; 40 ppm) was 1.6 and the “Average Lesion Score, Total Intestinal” value (E. tenella and E. maxima; 40 ppm) was 4.9. For the same compound, the Mortality (E. tenella and E. maxima; 40 ppm in feed) was 0, the Feed/Gain (E. tenella and E. maxima; 40 ppm) was 1.89 and the “Average Weight Gain” value (E. tenella and E. maxima; 40 ppm) was 176 g. For the same compound, the “Average Lesion Score, Cecal” value (E. tenella and E. maxima; 60 ppm) was 0.6, the “Average Lesion Score, Total Intestinal” value (E. tenella and E. maxima; 60 ppm) was 5.9 and the Mortality (E. tenella and E. maxima; 60 ppm in feed) was 0. For the same compound, the Feed/Gain (E. tenella and E. maxima; 60 ppm) was 1.83, the “Average Weight Gain” value (E. tenella and E. maxima; 60 ppm) was 155 g and the “Average Lesion Score, Cecal” value (E. tenella and E. maxima; 80 ppm) was 0.3. The “Average Lesion Score, Total Intestinal” value (E. tenella and E. maxima; 80 ppm) was 3.0, the Mortality (E. tenella and E. maxima; 80 ppm in feed) was 0 and the Feed/Gain (E. tenella and E. maxima; 80 ppm) was 1.83. For the same compound, the “Average Weight Gain” value (E. tenella and E. maxima; 80 ppm) was 182 g, the “Average Lesion Score, Cecal” value (E. tenella and E. maxima; 100 ppm) was 0 and the “Average Lesion Score, Total Intestinal” value (E. tenella and E. maxima; 100 ppm) was 1.6. For the same compound, the Mortality (E. tenella and E. maxima; 100 ppm in feed) was 0, the Feed/Gain (E. tenella and E. maxima; 100 ppm) was 1.87 and the “Average Weight Gain” value (E. tenella and E. maxima; 100 ppm) was 159 g. The “Average Lesion Score, Cecal” value ([4]; 62 ppm) was 0.1, the “Average Lesion Score, Intestinal” value ([4]; 62 ppm) was 0.9 and the “Oocysts Per Bird” value ([4]; 62 ppm) was 16.40 1×10^6. For the same compound, the “Percent Mortality” value ([4]; 62 ppm) was 0%, the “Percent Weight Gain” value ([4]; 62 ppm) was 97% and the “Average Lesion Score, Cecal” value ([4]; 77 ppm) was 0. For the same compound, the “Average Lesion Score, Intestinal” value ([4]; 77 ppm) was 0.7, the “Oocysts Per Bird” value ([4]; 77 ppm) was 5.48 1×10^6 and the “Percent Mortality” value ([4]; 77 ppm) was 0%. The “Percent Weight Gain” value ([4]; 77 ppm) was 90%, the “Average Lesion Score, Cecal” value ([4]; 100 ppm) was 0.1 and the “Average Lesion Score, Intestinal” value ([4]; 100 ppm) was 0.6. The “Oocysts Per Bird” value ([4]; 100 ppm) was 1.28 1×10^6, the “Percent Mortality” value ([4]; 100 ppm) was 0% and the “Percent Weight Gain” value ([4]; 100 ppm) was 85%. For the same compound, the “Average Lesion Score, Cecal” value ([4]; 121 ppm) was 0, the “Average Lesion Score, Intestinal” value ([4]; 121 ppm) was 0.3 and the “Oocysts Per Bird” value ([4]; 121 ppm) was 0.4 1×10^6. For the same compound, the “Percent Mortality” value ([4]; 121 ppm) was 0%, the “Percent Weight Gain” value ([4]; 121 ppm) was 73% and the “Ratio of Treated to Control, Total VFA mM/1.” value (rumen flora; 1 mcg/ml) was 0.7498. For the same compound, the “Ratio of Treated to Control, Molar % Acetate” value (rumen flora; 10 mcg/ml) was 0.8857, the “Ratio of Treated to Control, Molar % Butyrate” value (rumen flora; 10 mcg/ml) was 0.7012 and the “Ratio of Treated to Control, Total VFA mM/1.” value (rumen flora; 10 mcg/ml) was 1.0086. The “Ratio of Treated to Control, Molar % Propionate” value (rumen flora; 10 mcg/ml, * P<0.01) was 1.2919, the “Molar % Butyrate” value ([5]; control 8.1) was 9.6 Molar % and the “Molar % Propionate” value ([5]; control 17.4, * P<0.01) was 27.1 Molar %. For the same compound, the “Molar % Acetate” value ([5]; control 74.5, * P<0.01) was 63.3 Molar %, the “Total VFA” value ([5]; control 79.9) was 79.6 mM/1 and the “Molar % Propionate” value [6] was 29.5 Molar %. The “Final-Average Wt. per Pig” value (acute swine dysentery; 100 g/ton in feed, 26 days) was 30.3 lbs, the “No. Died per No. in Group” value (acute swine dysentery; 100 g/ton in feed, 26 days) was 0/4 and the “No. with Colon Lesions/No. in Group” value (acute swine dysentery; 100 g/ton in feed, 26 days) was 2/4. The “Diarrhea Index” value (acute swine dysentery; 100 g/ton, total score per treatment for 25 days (0=normal to 3=marked blood or mucus)) was 22, the “inhibition of powdery mildew disease” value (powdery mildew) was “inhibits powdery mildew disease” and the “increase in cardiac contractility” value (guinea pig left atria) was 28.0 ± 7.1%.

— patent publication US4133876A, “Antibiotic A-32887 and process for production thereof” (Eli Lilly and Company, priority 1977, dated 1979)
